Test results taken from BindingDB's records for doi:10.7270/Q2KH0KWR (Burnham Center For Chemical Genomics, 2012).

Biological target: T1, Tyrosine-protein phosphatase non-receptor type 5 (Homo sapiens, UniProt P54829)
T1 sequence (P54829 whole entry): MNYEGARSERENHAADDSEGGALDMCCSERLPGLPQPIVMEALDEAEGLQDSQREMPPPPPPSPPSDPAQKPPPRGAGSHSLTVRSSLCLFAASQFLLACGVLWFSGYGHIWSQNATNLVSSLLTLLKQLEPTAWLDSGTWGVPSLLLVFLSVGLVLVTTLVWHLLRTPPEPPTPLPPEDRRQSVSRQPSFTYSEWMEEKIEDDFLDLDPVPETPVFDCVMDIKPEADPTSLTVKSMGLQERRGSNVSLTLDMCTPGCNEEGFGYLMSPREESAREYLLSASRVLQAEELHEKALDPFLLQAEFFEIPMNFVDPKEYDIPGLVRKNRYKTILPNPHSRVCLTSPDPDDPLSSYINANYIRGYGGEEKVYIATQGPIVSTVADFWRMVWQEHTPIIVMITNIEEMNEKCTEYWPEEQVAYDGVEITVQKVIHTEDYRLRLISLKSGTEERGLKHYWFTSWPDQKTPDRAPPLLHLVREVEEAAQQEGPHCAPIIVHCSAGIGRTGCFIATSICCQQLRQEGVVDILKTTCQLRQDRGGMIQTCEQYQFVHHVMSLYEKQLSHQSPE
Test: STEP phosphatase inhibitor potency, dose response, orthogonal assay for STEP inhibitor project, biochemical, colorimetric absorbance (AID 624207)
Conditions: not given

| SMILES | IC50 |
| --- | --- |
| CCc1c(C)[nH]n(-c2ccc(Oc3ccccc3)c(S(=O)(=O)O)c2)c1=O [5-(4-ethyl-5-methyl-3-oxo-1H-pyrazol-2-yl)-2-phenoxybenzenesulfonic acid] | > 80 µM |
| N#C/C(=C\c1ccc(OC(=O)c2ccc(Cl)s2)cc1)c1nc2ccccc2[nH]1 [5-chloro-2-thiophenecarboxylic acid [4-[(E)-2-(1H-benzimidazol-2-yl)-2-cyanoethenyl]phenyl] ester] | > 80 µM |
| O=C(NN=Cc1ccc(F)cc1)c1cc(-c2ccc3c(c2)OCO3)n[nH]1 [3-(1,3-benzodioxol-5-yl)-N-[(E)-(4-fluorobenzylidene)amino]-1H-pyrazole-5-carboxamide] | > 80 µM |
| COCCCN(C(S)=Nc1c(C)cc(C)cc1C)C(C)c1ccccn1 (stereo not given) [1-(3-methoxypropyl)-1-[1-(2-pyridinyl)ethyl]-3-(2,4,6-trimethylphenyl)thiourea] | > 80 µM |
| O=C1NN(c2cccc(Br)c2)C(=O)/C1=C\c1ccc(N2CCOCC2)cc1 | > 80 µM |
| CC(C)OCCCN=C(S)Nc1ccc(S(N)(=O)=O)cc1 [1-(3-propan-2-yloxypropyl)-3-(4-sulfamoylphenyl)thiourea] | > 80 µM |
| O=S(=O)(Nc1ccccc1)c1cccc2nsnc12 [N-phenyl-2,1,3-benzothiadiazole-4-sulfonamide] | > 80 µM |

The remaining lines, values ahead:

| IC50 | SMILES |
| --- | --- |
| 7.05 µM | O=C(Nc1cc([N+](=O)[O-])ccc1O)c1cccc(C(=O)Nc2cc([N+](=O)[O-])ccc2O)c1 [MLS001008494] |
| 12.6 µM | CN1CCN(C(=S)C(=O)Nc2ccc(Br)cc2)CC1 [MLS000665240] |
| > 80 µM | CC(=NNC(=S)N1CC2CCC(CC2)C1)c1cccc(C)n1 [SMR001565418] |

Same assay, conditions: inactive by the depositor's call

| SMILES | IC50 |
| --- | --- |
| CCOC(=O)N1CCC(N(CCN(C)C)C(=S)Nc2cc(Cl)ccc2C)CC1 [ethyl 4-[(5-chloranyl-2-methyl-phenyl)carbamothioyl-[2-(dimethylamino)ethyl]amino]piperidine-1-carboxylate] | 77.1 µM |
| CCOc1ccc(C(=S)N2CCN(C)CC2)cc1 [(4-ethoxyphenyl)-(4-methyl-1-piperazinyl)methanethione] | 44.3 µM |
| COc1ccc(Cl)cc1N=C(S)N(CCCN1CCOCC1)Cc1cn(C)c2ccccc12 [N'-(5-chloro-2-methoxyphenyl)-N-[(1-methyl-1H-indol-3-yl)methyl]-N-(3-morpholin-4-ylpropyl)thiourea] | 36.9 µM |
| S=C(NCCCN1CCOCC1)Nc1ccc(-c2nc3ccccc3[nH]2)cc1 | 79.6 µM |
| CCCN(CC(=O)Nc1ccccc1OC)C(=O)Cc1ccc2c(c1)CCC2 [2-(2,3-dihydro-1H-inden-5-yl)-N-[2-[(2-methoxyphenyl)amino]-2-oxidanylidene-ethyl]-N-propyl-ethanamide] | 57 µM |
| O=C(N/N=C/c1cccc([N+](=O)[O-])c1)c1ccc(Br)cc1 [4-bromo-N-[(E)-(3-nitrophenyl)methylideneamino]benzamide] | 21.5 µM |

Now from value to molecule:

| IC50 | SMILES |
| --- | --- |
| 33.5 µM | COC(=O)c1ccccc1CSc1nsc(/C=C/N(C)C)c1C#N [SMR000549393] |
| 29.4 µM | CC(=NNC(=O)c1ccccc1O)c1ccc(NC(=O)Cc2ccccc2)cc1 [MLS001224813] |
| 28.5 µM | CCOc1ccc(/C=N/NC(=O)c2cc3c(OC)cccc3[nH]2)cc1 [MLS001216500] |
| 64.8 µM | Sc1ncnc2c1ncn2-c1ccc(Cl)cc1 [MLS002638664] |
